Test results reported in patent US7160880B1, “Short-acting benzodiazepines” (CeNeS Limited, priority 1999, dated 2007).
Read-outs that look alike come from different tables or passages of the source.

Legend:
male Wistar rats = experiment: Loss of the righting reflex (LRR) in rats; assay type: in vivo, rat; conditions: i.v. via tail vein, dose in the range of 10–100 mg/kg
Protocol: The intrinsic efficacy of a compound was assessed by its ability to cause loss of the righting reflex (LRR) in rats, an effect associated with benzodiazepine full agonism.
Method: Subjects for these studies were male Wistar rats, weighing approximately 250–350 grams. To assess loss of righting reflex (LRR), animals were placed in plastic restrainers and test compounds were administered i.v. via the tail vain. Subjects were immediately removed from the restrainer and the time to onset of loss of righting reflex was recorded. LRR was defined as the loss of an animal's ability to right itself when placed in a supine position. […] Compounds producing LRR were evaluated by three measures: 1) Time to onset of LRR (as described above) 2) Time to recover from LRR. An animal met this criteria when able to right itself three consecutive times after losing its righting reflex 3) Total recovery time. Total recovery was measured by the animal's ability to walk without ataxia as well as its ability to pull itself up three consecutive times when suspended from a horizontal wire. […] The therapeutically useful dosage range for administration to mammals is 0.01 to 5.0 mg/kg of body weight.

[1] = molecular target: benzodiazepine receptor (benzodiazepine site on the GABAA receptor complex); experiment: Benzodiazepine radioligand (3H-flunitrazepam) binding assay
[2] = read-out: Benzodiazepine receptor binding Ki, 3H-flunitrazepam, brain membrane homogenates, 90 minutes at 4° C., tissue species of the tabulated values not stated

| Structure (SMILES) | loss of righting reflex (LRR) (male Wistar rats) | Ki [1, 2] [nM] | Ki ([1]; compound used at 10 μM to define nonspecific binding) [nM] |
| --- | --- | --- | --- |
| O=C(CC[C@@H]1N=C(c2ccccc2F)c2cc(Cl)ccc2NC1=O)OCc1ccccc1 [Example 1-6] | producing loss-of-righting | 101 to 1000 |  |
| COC(=O)CC[C@@H]1N=C(c2ccccn2)c2cc(Cl)ccc2-n2cc(C)nc21 [Example 1c-10] | producing loss-of-righting | 51 to 100 |  |
| CNC1=Nc2ccc(Br)cc2C(c2ccccc2F)=N[C@H]1CCC(=O)OC [Example 1b-10] | producing loss-of-righting | 1 to 50 |  |
| CN1C(=O)[C@H](CC(=O)OCc2ccccc2)N=C(c2ccccc2F)c2cc(Cl)ccc21 [Example 1-24] |  | 51 to 100 |  |
| CCOC(=O)CC[C@@H]1N=C(c2ccccn2)c2cc(Cl)ccc2NC1=O [Example 1-15] |  | 101 to 1000 |  |
| COC(=O)CCNC1N=C(c2ccccc2Cl)c2cc(Cl)ccc2NC1=O (stereo not drawn) [Example 1-27] |  | 1 to 50 |  |
| COC(=O)CC[C@H]1C(=O)Nc2ccc(Cl)cc2C(c2ccccc2F)=[N+]1[O-] [Example 1-31] |  | 51 to 100 |  |
| CC(C)OC(=O)CC[C@@H]1N=C(c2ccccc2F)c2cc(Cl)ccc2NC1=O [Example 1-21] |  | 1 to 50 |  |
| COC(=O)CC[C@@H]1N=C(c2ccccc2F)c2cc(Cl)ccc2-n2cc(COC(C)(C)C)nc21 [Example 1c-19] |  | 1 to 50 |  |
| COC(=O)CC[C@@H]1N=C(c2ccccc2F)c2cc(Cl)ccc2-n2cc(C)nc21 [Example 1c-3] | producing loss-of-righting | 1 to 50 |  |
| CCN(CC)CCN1C(=O)[C@H](CCC(=O)OCc2ccccc2)N=C(c2ccccc2F)c2cc(Cl)ccc21 [Example 1-25] |  | 51 to 100 |  |
| CCOC(=O)C[C@@H]1N=C(c2ccccc2F)c2cc(Cl)ccc2NC1=O [Example 1-20] |  | 1 to 50 |  |
| COC(=O)CC[C@@H]1N=C(c2ccccc2F)c2cc(Cl)ccc2-n2c(C)cnc21 [Example 1c-2] | producing loss-of-righting | 1 to 50 |  |
| COC(=O)CC[C@@H]1N=C(c2ccccc2F)c2cc(Cl)ccc2N(C)C1=O [Example 1-23] | producing loss-of-righting | 1 to 50 |  |
| CCCOC(=O)CC[C@@H]1N=C(c2ccccn2)c2cc(Cl)ccc2NC1=O [Example 1-14] |  | 101 to 1000 |  |
| COC(=O)CC[C@@H]1N=C(c2ccccc2F)c2cc(Cl)ccc2-n2c(C)nnc21 [Example 1c-15] | producing loss-of-righting | 1 to 50 |  |
| Cc1nnc2n1-c1ccc(Cl)cc1C(c1ccccc1F)=N[C@H]2CCC(=O)OCC(C)C [Example 1c-16] |  | 1 to 50 |  |
| COC(=O)CC[C@@H]1N=C(c2ccccc2F)c2cc(Cl)ccc2N=C1NCCO [Example 1b-9] |  | 101 to 1000 |  |
| COC(=O)CC[C@@H]1N=C(c2ccccc2F)c2cc(Cl)ccc2N=C1NCCc1c[nH]cn1 [Example 1b-8] |  | 101 to 1000 |  |
| COC(=O)CC[C@@H]1N=C(c2ccccc2F)c2cc(Cl)ccc2N=C1NCc1ccncc1 [Example 1b-5] |  | > 1000 |  |
| CCCCOC(=O)CC[C@@H]1N=C(c2ccccn2)c2cc(Cl)ccc2NC1=O [Example 1-18] |  | 101 to 1000 |  |
| COC(=O)CC[C@@H]1N=C(c2ccccc2F)c2cc(Br)ccc2NC1=O [Example 1-3] | producing loss-of-righting | 1 to 50 |  |
| COC(=O)CC[C@@H]1N=C(c2ccccc2F)c2cc(Cl)ccc2-n2c(CO)cnc21 [Example 1c-5] |  | 1 to 50 |  |
| COC(=O)CC[C@@H]1N=C(c2ccccn2)c2cc(Cl)ccc2-n2c1nc(C)c2C [Example 1c-13] |  | 101 to 1000 |  |
| COC(=O)CC[C@@H]1N=C(c2ccccn2)c2cc(Cl)ccc2NC1=O [Example 1-11] | producing loss-of-righting | 101 to 1000 |  |
| CCN(CC)CCN1C(=O)[C@H](CCC(=O)OC)N=C(c2ccccc2F)c2cc(Cl)ccc21 [Example 1-22] |  | 101 to 1000 |  |
| COC(=O)CC[C@@H]1N=C(c2ccccc2F)c2cc(Cl)ccc2N=C1NCc1ccccc1 [Example 1b-4] |  | 101 to 1000 |  |
| COC(=O)CC[C@@H]1N=C(c2ccccc2F)c2cc(Cl)ccc2NC1=O [Example 1-1, Methyl 3-[(3S)-7-chloro-5-(2-fluorophenyl)-2-oxo-2,3-dihydro-1H-1,4-benzodiazepin-3-yl]propanoate] | producing loss-of-righting | 1 to 50 |  |

| Structure (SMILES) | loss of righting reflex (LRR) (male Wistar rats) | Ki [1, 2] [nM] | Ki ([1]; compound used at 10 μM to define nonspecific binding) [nM] |
| --- | --- | --- | --- |
| COC(=O)CCC[C@@H]1N=C(c2ccccc2F)c2cc(Cl)ccc2NC1=O [Example 1-8] |  | 1 to 50 |  |
| COC(=O)CC[C@@H]1N=C(c2ccccc2F)c2cc(Cl)ccc2-n2c1cnc2C (racemic) [Example 1c-18] | producing loss-of-righting | 1 to 50 |  |
| COC(=O)CC[C@@H]1N=C(c2ccccc2F)c2cc(Cl)ccc2N=C1NCCc1ccncc1 [Example 1b-6] |  | 101 to 1000 |  |
| CN1C(=O)CN=C(c2ccccc2Cl)c2cc(Cl)ccc21 [2′-chlorodiazepam, reference compound] |  |  | 0.5 |
| CCCCOC(=O)CC[C@@H]1N=C(c2ccccc2F)c2cc(Cl)ccc2NC1=O [Example 1-17] | producing loss-of-righting | 101 to 1000 |  |
| COC(=O)CC[C@@H]1N=C(c2ccccc2Cl)c2cc(Cl)ccc2NC1=O [Example 1-7] | producing loss-of-righting | 1 to 50 |  |
| CC(C)COC(=O)CC[C@@H]1N=C(c2ccccn2)c2cc(Cl)ccc2NC1=O [Example 1-19] |  | 101 to 1000 |  |
| O=C(CC[C@@H]1N=C(c2ccccn2)c2cc(Cl)ccc2NC1=O)OCc1ccccc1 [Example 1-9] | producing loss-of-righting | 101 to 1000 |  |
| COC(=O)CC[C@@H]1N=C(c2ccccc2Cl)c2cc(Cl)ccc2-n2c(C)nnc21 [Example 1c-14] | producing loss-of-righting | 1 to 50 |  |
| CNC1=Nc2ccc(Cl)cc2C(c2ccccc2F)=N[C@H]1CCC(=O)OC [Example 1b-1] | producing loss-of-righting | 51 to 100 |  |
| COC(=O)CC[C@@H]1N=C(c2ccccn2)c2cc(Cl)ccc2-n2cc(CO)nc21 [Example 1c-11] |  | 101 to 1000 |  |
| COC(=O)CC[C@@H]1N=C(c2ccccn2)c2cc(Br)ccc2-n2c(C)cnc21 [Example 1c-8, Methyl 3-[(4S)-8-bromo-1-methyl-6-(2-pyridinyl)-4H-imidazo[1,2-a][1,4]benzodiazepin-4-yl]propanoate] | producing loss-of-righting | 1 to 50 |  |
| COC(=O)CC[C@H]1N=C(c2ccccc2F)c2cc(Cl)ccc2NC1=O [Example 1-4] | producing loss-of-righting | 101 to 1000 |  |
| COC(=O)CC[C@@H]1N=C(c2ccccc2F)c2cc(Cl)ccc2N=C1NCC(C)C [Example 1b-7] |  | > 1000 |  |
| COC(=O)CC[C@@H]1N=C(c2ccccc2F)c2cc(Cl)ccc2NC1=O [Example 1-2] |  | 51 to 100 |  |
| COC(=O)CCC[C@@H]1N=C(c2ccccc2F)c2cc([N+](=O)[O-])ccc2NC1=O [Example 1-13] |  | 1 to 50 |  |
| COC(=O)CC[C@@H]1N=C(c2ccccn2)c2cc(Br)ccc2NC1=O [Example 1-10] |  | 51 to 100 |  |
| COC(=O)CC[C@@H]1N=C(c2ccccn2)c2cc(Cl)ccc2-n2c(CO)cnc21 [Example 1c-12] |  | 101 to 1000 |  |
| CCNC1=Nc2ccc(Cl)cc2C(c2ccccc2F)=N[C@H]1CCC(=O)OC [Example 1b-3] |  | 101 to 1000 |  |
| COC(=O)CC[C@@H]1N=C(c2ccccc2F)c2cc(Cl)ccc2-n2cncc21 [Example 1c-17] | producing loss-of-righting | 101 to 1000 |  |
| COC(=O)CC[C@@H]1N=C(c2ccccn2)c2cc(Br)ccc2-n2cc(C)nc21 [Example 1c-9] |  | 1 to 50 |  |
| O=C(CC[C@@H]1N=C(c2ccccc2F)c2cc(Cl)ccc2NC1=O)OCc1ccccc1 [Example 1-5] | producing loss-of-righting | 1 to 50 |  |
| COC(=O)CC[C@@H]1N=C(c2ccccn2)c2cc(Cl)ccc2-n2c(C)cnc21 [Example 1c-7] | producing loss-of-righting | 51 to 100 |  |
| COC(=O)CC[C@@H]1N=C(c2ccccc2F)c2cc(Cl)ccc2-n2cc(CO)nc21 [Example 1c-4] |  | 1 to 50 |  |
| COC(=O)CC[C@@H]1N=C(c2ccccn2)c2cc(Cl)ccc2-n2ccnc21 [Example 1c-6] | producing loss-of-righting | 51 to 100 |  |
| COC(=O)CC[C@@H]1N=C(c2ccccc2F)c2cc(Cl)ccc2-n2ccnc21 [Example 1c-1] | producing loss-of-righting | 1 to 50 |  |
| COC(=O)CNC1N=C(c2ccccc2Cl)c2cc(Cl)ccc2NC1=O (stereo not drawn) [Example 1-26] |  | 51 to 100 |  |
